Patent publication US7285618B1, “Polypeptides having neutrophil stimulating activity” (Japan Tobacco Inc., priority 2000, dated 2007)
Read-outs that look alike come from different tables or passages of the source. Where a SMILES comes first, the peptide text is derived from it. Where no end group is shown, it is not given here. The star is where a group is joined. For = O=C*

Columns and labels:
[1] = test system: undifferentiated HL60 cells; assay: Intracellular Ca2+ concentration (fura-2), undifferentiated HL60 cells; assay type: cell-based, human
Experimental: (§1) The differentiated HL60 cells or undifferentiated HL60 cells were washed twice with a Hepes-Na solution (140 mM NaCl, 4 mM KCl, 1 mM NaH2PO4, 1 mM MgCl2, 1.25 mM CaCl2, 5 mM Hepes, 11 mM glucose, 0.2% BSA, pH 7.4). Then, Ca^2+ sensitive fluorescence reagent, fura-2/AM, was added to the cell suspension (4 ml: final concentration, 4 μM). The reaction mixture was then shaken gently at room temperature for 60 minutes, shielded from light in order to incorporate fura-2 into the HL60 cells. Subsequently, the cells were washed twice with a Hepes-Na solution and a cell suspension was prepared at a final cell density of 1.0×10^6 cells/ml. One milliliter of the cell suspension was put into reaction cuvettes and stimulated with various samples under stirring at 30° C. Ratios of fluorescence intensity at 500 nm (F) for an excitation wavelength at 340 nm to that at 380 nm were measured with a fluorimeter (CAF-100, Japan Spectroscopic Co., Ltd.) and [Ca^2+]i was calculated following the formula: [Ca^2+]i(nM)=K×{(F−Fmin)/(Fmax−F)}×A/B, wherein
(§2) Fmax: a ratio of fluorescence intensity at 500 nm for an excitation wavelength at 340 nm to that at 380 nm after all cells were solubilized with 0.1% Triton X-100;
(§3) Fmin: a ratio of fluorescence intensity at 500-nm for an excitation wavelength at 340 nm to that at 380 nm after the whole calcium was chelated with 4 mM EGTA;
(§4) A: fluorescence intensity at 500-nm for an excitation wavelength at 380 nm, when all the calcium was chelated with EGTA;
(§5) B: fluorescence intensity at 500-nm for an excitation wavelength at 380 nm, when all cells were solubilized with Triton X-100;
(§6) K: 224 (nM) (the dissociation constant of fura-2).

[2] = test system: differentiated HL60 cells; assay: Intracellular Ca2+ concentration (fura-2), differentiated HL60 cells; assay type: cell-based, human; settings: differentiated HL60 cells (+)
Experimental: as §1, §2, §3, §4, §5, §6

[3] = test system: differentiated HL60 cells; assay type: cell-based, human; settings: for activity of promoting β-HA secretion / activity for β-HA secretion compared with COSP-1 and fCyt b (1-15): differentiated HL60 cells; for activity of promoting β-HA secretion: Example 12; for activity for β-HA secretion compared with COSP-1 and fCyt b (1-15): human homologues; for β-HA secretion from differentiated HL60 cells (%/total): total = β-HA released with 0.05% Triton X-100
Experimental: a. Cultivation of HL60 Cells and Induction to the Differentiated Neutrophil-Like Cells For cultivation, heat-inactivated FCS (final concentration; 10%), streptomycin (final concentration; 100 mg/l), penicillin G (final concentration of 10^5 units/l) and RPMI-1640 culture solution containing 10 mM Hepes (pH 7.4) were used. Cells were cultivated at a cell density of 2×10^5-1.5×10^6 cells/ml in a plastic flask (80 cm^2, 260 ml, Nunc) at 37° C. under stationary conditions with a 5% of CO2 concentration and a 100% of humidity. […] c. […] Measuring β-HA Enzyme Activity The amount of β-HA secreted into the reaction supernatant was determined by measuring the absorbance at 415 nm of p-nitrophenol that was generated by an enzymatic reaction involving p-nitrophenyl N-acetyl-β-D-glucosaminide as a substrate. To be specific, 90 μl of the reaction supernatant was transferred to a 96-well Immuno plate (Nunc) and 60 μl of a substrate solution (10 mM p-nitrophenyl N-acetyl-β-D-glucosaminide/40 mM citrate, 70 mM Na2HPO4, pH 4.5) was added to initiate an enzymatic reaction. Following a 1-hr reaction at 37° C., 100 μl of a reaction quencher (400 mM glycine, pH 10.7) was added to stop the reaction and the absorbance at 415 nm was measured. As a control, cells were treated with Triton X-100 at a final concentration of 0.05% and the amount of β-HA in the supernatant was measured. As another control, the amount of β-HA secreted from cells upon stimulation with fMLP at a final concentration of 10 μM was measured.

[4] = test system: differentiated HL60 cells
Experimental: (§10) The differentiated HL60 cells and human leukocyte cells were washed three times with ice-cooled 0.1% BSA containing Hepes buffered Hank's solution (HBHS; 10 mM Hepes, 136.9 mM NaCl, 5.4 mM KCl, 1.2 mM CaCl2, 0.44 mM KH2PO4, 0.49 mM MgCl2, 0.41 mM MgSO4, 0.34 mM Na2HPO4, 5.5 mM glucose, 4.2 mM NaHCO3, pH 7.4). A cell suspension was prepared for each cell type at 5.5×10^6 cells/ml. Cytochalasin B and DNase I were then added to each cell suspension at a final concentration of 5 μg/ml. Ninety μl of each cell suspension was then transferred to an ice-cooled tube (5.0×10^5 cells/tube) and incubated at 37° C. for 10 minute. To each tube, either one of the fractions of polypeptide (or extract) in solution (10 μl) was added and incubated at 37° C. for 10 minutes to stimulate the cells. Immediately after the treatment, 200 μl of ice-cooled reaction quenching buffer (25 mM Tris, 123 mM NaCl, 2.7 mM KCl, pH 7.4) was added to the cell suspensions to stop the stimulation. Thereafter, the tubes were spun down at 4° C. for 60 seconds to precipitate the cell pellets and the β-HA activity and the lactate dehydrogenase (LDH) activity in the supernatant were measured.
(§11) The amount of LDH secreted into the reaction mixture was determined by measuring the absorbance (340 nm) of NADH generated by reduction of that NAD involves dehydrogenation of lactate. Reaction was initiated by adding a 400 μl of a substrate-buffer solution (125 mM 2-amino-2-methyl-1-propanol, 125 mM lithium lactate, 6.25 mM NAD, pH 9.5) to a 100 μl of the reaction supernatant. Following a 1-hr incubation at 37° C., the mixture was quenched in ice water to stop the reaction and the absorbance at 340 nm was measured.
(§12) The LDH enzyme activity secreted in the reaction mixture was expressed as the percentage of the total enzyme activity in cells (%/total) which was the enzyme activity of LDH released upon disruption of the cells with 0.05% Triton X-100.

[5] = test system: differentiated HL60 cells; assay: LDH leakage from HL60 cells; settings: differentiated HL60 cells, Example 4
Experimental: as §10, §11, §12

[6] = test system: undifferentiated HL60 cells; assay: Migration promoting activity (Chemotaxis Cells), undifferentiated HL60 cells; assay type: cell-based, human
Experimental: (§7) The migration promoting activity of each of the polypeptides of interest was measured using Chemotaxis Cells (Kurabo) as follows: The differentiated HL60 cells or undifferentiated HL60 cells were washed three times with ice-cooled HBHS and a cell suspension was prepared at a cell density of 4×10^6 cells/ml. The cell suspension was incubated at 37° C. for 10 minutes; thereafter, 500 μl of the cell suspension was transferred to Chemotaxis Cells (2×10^6 cells/Cell), which were put on a micro-well plate filled with pre-heated (37° C.) HBHS containing 1 ml of polypeptide and incubation was performed at 37° C. for 1 hour. Then, the Chemotaxis Cells were removed from the plate and the number of cells that had migrated in each well was counted.
(§8) Migration promoting activity was expressed by a chemotaxis index, or the number of cells that migrated upon stimulation was divided by the number of cells migrated without stimuli.
The activity of the human homologues of COSP-1 and fCyt b (1-15) for promoting β-HA secretion and migration promoting activities were measured following the methods described in Examples 4 and 5, respectively. […]

[7] = test system: differentiated HL60 cells; assay: Migration promoting activity (Chemotaxis Cells), differentiated HL60 cells; assay type: cell-based, human; settings: for activity for migration at the concentrations where β-HA secretion was observed / concentrations of migration activity relative to the concentration for β-HA secretion: Example 12
Experimental: as §7, §8
(§9) The activity of the human homologues of COSP-1 and fCyt b (1-15) for promoting β-HA secretion and migration promoting activities were measured following the methods described in Examples 4 and 5, respectively. The activity for β-HA secretion was expressed by the percentage for the maximum amount of secretion upon stimulation with 10 μM of fMLP, whereas the activity for migration was expressed by a chemotaxis index, i.e., the ratio of the number of stimulated migrating cells to that of unstimulated migrating cells.

[8] = test system: undifferentiated HL60 cells; assay: β-HA secretion from undifferentiated HL60 cells (Example 12); assay type: cell-based, human; settings: data not shown
Experimental: as §9

Row | Compound | migration promoting activity [6] | migration promoting (attracting) activity [7] | activity for migration at the concentrations where β-HA secretion was observed [7] | concentrations of migration activity relative to the concentration for β-HA secretion [7] | activity of promoting β-HA secretion [8] | activity of promoting β-HA secretion [3] | activity for β-HA secretion compared with COSP-1 and fCyt b (1-15) [3] | β-HA secretion from differentiated HL60 cells (%/total) [3] | further results
1 | Nc1ncnc2c1ncn2[C@@H]1O[C@H](COP(=O)(O)OP(=O)(O)OP(=O)(O)O)[C@@H](O)[C@H]1O [ATP] | – | – | – | – | – | – | – | – | intracellular Ca2+ concentration [1]: increased; intracellular Ca2+ concentration [2]: increased
2 | CC[C@H](C)[C@H](NC(=O)[C@H](CC(N)=O)NC(=O)[C@@H](NC(=O)[C@H](CCSC)NC=O)[C@@H](C)O)C(=O)N[C@@H](CCCNC(=N)N)C(=O)N[C@@H](CCCCN)C(=O)N[C@@H](CO)C(=O)N[C@@H](Cc1c[nH]cn1)C(=O)N1CCC[C@H]1C(=O)N[C@@H](CC(C)C)C(=O)N[C@@H](CCSC)C(=O)N[C@@H](CCCCN)C(=O)N[C@H](C(=O)N[C@H](C(=O)N[C@@H](CC(N)=O)C(=O)O)[C@@H](C)CC)[C@@H](C)CC [fCyt b (1-15), fMet-Thr-Asn-Ile-Arg-Lys-Ser-His-Pro-Leu-Met-Lys-Ile-Ile-Asn] (For-MTNIRKSHPLMKIIN-OH) | – | – | – | – | – | – | – | – | EC50 [3]: 38 ± 3.4 nM
3 | CC[C@H](C)[C@H](NC(=O)[C@H](CC(N)=O)NC(=O)[C@@H](NC(=O)[C@H](CCSC)NC=O)[C@@H](C)O)C(=O)N[C@@H](CCCNC(=N)N)C(=O)N[C@@H](CCCCN)C(=O)N[C@@H](CO)C(=O)N[C@@H](Cc1cnc[nH]1)C(=O)N1CCC[C@H]1C(=O)N[C@@H](CC(C)C)C(=O)N[C@@H](CCSC)C(=O)N[C@@H](CCCCN)C(=O)N[C@H](C(=O)N[C@H](C(=O)N[C@@H](CC(N)=O)C(=O)O)[C@@H](C)CC)[C@@H](C)CC [fCyt b (1-15), fMet-Thr-Asn-Ile-Arg-Lys-Ser-His-Pro-Leu-Met-Lys-Ile-Ile-Asn] (For-MTNIRKSHPLMKIIN-OH) | – | – | – | – | – | – | – | – | LDH leakage out of the cells [4]: no LDH was found to leak out
4 | MTNIRKSHPLMKIIN [Cyt b (1-15)] | – | – | – | – | – | – | – | – | LDH leakage out of the cells [5]: no LDH was found to leak out
5 | VTFLLPAGWILSHLETYRRPE [Human COSP-1] | not observed | showed the activity | desensitized | observed at concentrations lower | not observed | showed the activity | comparable | 53.5 %/total | –
6 | fMet-Thr-Pro-Met-Arg-Lys-Ile-Asn-Pro-Leu-Met-Lys-Leu-Ile-Asn (For-MTPMRKINPLMKLIN; listed as Homo sapiens) [Human fCyt b (1-15)] | not observed | showed the activity | desensitized | observed at concentrations lower | not observed | showed the activity | comparable | 65.9 %/total | –
